Active and inactive are the calls of the source. The calls are words filed in the database; no cut-off is given here.
Legend:
Format in all cases: functional, cell-based
[1] = target: T1, Taste receptor type 2 member 46 (Homo sapiens) (UniProt P59540); assay: Antagonist activity at recombinant human N-terminal rat ST3 receptor-fused TAS2R46 expressed in HEK293T cells co-expressing Galpha16gust44 assessed as inhibition of picrotoxinin-induced intracellular calcium level at 100 uM by FLIPR assay
T1 sequence (whole entry): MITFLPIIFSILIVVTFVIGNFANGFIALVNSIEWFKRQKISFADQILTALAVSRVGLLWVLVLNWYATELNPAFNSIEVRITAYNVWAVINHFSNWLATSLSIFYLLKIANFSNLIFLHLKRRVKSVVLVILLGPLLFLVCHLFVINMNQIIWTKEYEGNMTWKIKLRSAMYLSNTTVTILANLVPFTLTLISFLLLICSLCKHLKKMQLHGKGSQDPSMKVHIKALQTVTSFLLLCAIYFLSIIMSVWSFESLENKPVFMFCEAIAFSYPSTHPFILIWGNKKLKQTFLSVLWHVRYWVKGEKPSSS

[2] = target: Taste receptor type 2 member 40 (Homo sapiens) (UniProt P59535); assay: Antagonist activity at recombinant human N-terminal rat ST3 receptor-fused TAS2R40 expressed in HEK293T cells co-expressing Galpha16gust44 assessed as inhibition of cohumulone-induced intracellular calcium level at 100 uM by FLIPR assay
[3] = target: T2, Taste receptor type 2 member 1 (Homo sapiens) (UniProt Q9NYW7); assay: Activity at recombinant human N-terminal rat ST3 receptor-fused TAS2R1 expressed in HEK293T cells co-expressing Galpha16gust44 assessed as effect on trans-isocohumulone-induced intracellular calcium level at 100 uM by FLIPR assay
T2 sequence (whole entry): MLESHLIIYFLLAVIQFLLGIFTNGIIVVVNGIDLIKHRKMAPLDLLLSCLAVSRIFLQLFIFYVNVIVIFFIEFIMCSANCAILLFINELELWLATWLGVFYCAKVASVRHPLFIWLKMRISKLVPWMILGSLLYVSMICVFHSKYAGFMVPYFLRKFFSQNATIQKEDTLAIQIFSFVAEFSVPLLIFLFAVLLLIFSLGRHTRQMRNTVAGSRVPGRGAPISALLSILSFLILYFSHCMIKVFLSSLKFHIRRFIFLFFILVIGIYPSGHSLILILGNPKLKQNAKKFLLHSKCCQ

[4] = target: T3, Taste receptor type 2 member 4 (Homo sapiens) (UniProt Q9NYW5); assay: Activity at recombinant human N-terminal rat ST3 receptor-fused TAS2R4 expressed in HEK293T cells co-expressing Galpha16gust44 assessed as effect on colchicine-induced intracellular calcium level at 100 uM by FLIPR assay
T3 sequence (whole entry): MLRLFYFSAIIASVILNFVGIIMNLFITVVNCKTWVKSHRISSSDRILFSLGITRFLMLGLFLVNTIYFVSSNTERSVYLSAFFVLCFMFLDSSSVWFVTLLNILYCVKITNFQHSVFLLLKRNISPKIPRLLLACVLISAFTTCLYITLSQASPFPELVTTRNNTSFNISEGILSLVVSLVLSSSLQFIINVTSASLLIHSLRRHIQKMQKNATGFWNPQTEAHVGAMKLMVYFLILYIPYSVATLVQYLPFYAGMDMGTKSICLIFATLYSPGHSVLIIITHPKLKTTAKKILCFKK

[5] = target: T4, Taste receptor type 2 member 10 (Homo sapiens) (UniProt Q9NYW0); assay: Activity at recombinant human N-terminal rat ST3 receptor-fused TAS2R10 expressed in HEK293T cells co-expressing Galpha16gust44 assessed as effect on strychnine-induced intracellular calcium level at 100 uM by FLIPR assay
T4 sequence (whole entry): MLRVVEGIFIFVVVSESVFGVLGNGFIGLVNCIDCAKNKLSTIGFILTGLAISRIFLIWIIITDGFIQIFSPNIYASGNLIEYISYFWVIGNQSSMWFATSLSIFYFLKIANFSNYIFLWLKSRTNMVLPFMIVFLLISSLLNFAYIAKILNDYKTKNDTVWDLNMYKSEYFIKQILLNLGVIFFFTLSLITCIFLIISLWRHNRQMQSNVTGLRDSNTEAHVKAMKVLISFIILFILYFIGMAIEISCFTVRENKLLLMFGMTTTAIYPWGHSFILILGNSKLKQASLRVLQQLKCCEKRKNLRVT

[6] = target: T5, Taste receptor type 2 member 13 (Homo sapiens) (UniProt Q9NYV9); assay: Activity at recombinant human N-terminal rat ST3 receptor-fused TAS2R13 expressed in HEK293T cells co-expressing Galpha16gust44 assessed as effect on denatonium benzoate-induced intracellular calcium level at 100 uM by FLIPR assay
T5 sequence (whole entry): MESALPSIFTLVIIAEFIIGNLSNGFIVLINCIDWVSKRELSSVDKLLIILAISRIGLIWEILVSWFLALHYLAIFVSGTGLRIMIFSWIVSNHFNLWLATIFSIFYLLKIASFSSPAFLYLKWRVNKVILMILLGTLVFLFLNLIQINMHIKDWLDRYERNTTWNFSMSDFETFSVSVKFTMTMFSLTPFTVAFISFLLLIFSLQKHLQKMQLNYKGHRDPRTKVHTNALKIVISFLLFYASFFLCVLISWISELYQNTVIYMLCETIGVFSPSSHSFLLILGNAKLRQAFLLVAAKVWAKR

[7] = target: T6, Taste receptor type 2 member 9 (Homo sapiens) (UniProt Q9NYW1); assay: Activity at recombinant human N-terminal rat ST3 receptor-fused TAS2R9 expressed in HEK293T cells co-expressing Galpha16gust44 assessed as effect on ofloxacin-induced intracellular calcium level at 100 uM by FLIPR assay
T6 sequence (whole entry): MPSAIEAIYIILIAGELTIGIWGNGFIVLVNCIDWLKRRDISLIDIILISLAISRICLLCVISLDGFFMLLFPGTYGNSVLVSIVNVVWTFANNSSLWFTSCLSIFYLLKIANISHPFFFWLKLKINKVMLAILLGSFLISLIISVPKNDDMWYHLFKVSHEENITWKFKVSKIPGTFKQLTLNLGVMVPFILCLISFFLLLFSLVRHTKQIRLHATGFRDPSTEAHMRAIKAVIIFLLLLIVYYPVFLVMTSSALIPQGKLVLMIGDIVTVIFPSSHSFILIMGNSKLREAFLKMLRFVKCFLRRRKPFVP

[8] = target: T7, Taste receptor type 2 member 30 (Homo sapiens) (UniProt P59541); assay: Antagonist activity at recombinant human N-terminal rat ST3 receptor-fused TAS2R47 expressed in HEK293T cells co-expressing Galpha16gust44 assessed as inhibition of brucine-induced intracellular calcium level at 100 uM by FLIPR assay
T7 sequence (whole entry): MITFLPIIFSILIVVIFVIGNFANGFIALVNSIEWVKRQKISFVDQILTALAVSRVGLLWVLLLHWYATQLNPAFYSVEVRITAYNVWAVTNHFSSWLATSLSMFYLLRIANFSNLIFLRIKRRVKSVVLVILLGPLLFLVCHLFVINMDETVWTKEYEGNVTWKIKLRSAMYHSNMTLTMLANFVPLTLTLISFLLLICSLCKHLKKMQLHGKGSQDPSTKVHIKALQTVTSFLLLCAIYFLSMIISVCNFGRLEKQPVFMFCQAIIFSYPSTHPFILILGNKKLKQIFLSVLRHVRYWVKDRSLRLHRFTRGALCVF

Chain of Taste receptor type 2 member 40 (Homo sapiens) (P59535 whole entry, the tested form may be a part): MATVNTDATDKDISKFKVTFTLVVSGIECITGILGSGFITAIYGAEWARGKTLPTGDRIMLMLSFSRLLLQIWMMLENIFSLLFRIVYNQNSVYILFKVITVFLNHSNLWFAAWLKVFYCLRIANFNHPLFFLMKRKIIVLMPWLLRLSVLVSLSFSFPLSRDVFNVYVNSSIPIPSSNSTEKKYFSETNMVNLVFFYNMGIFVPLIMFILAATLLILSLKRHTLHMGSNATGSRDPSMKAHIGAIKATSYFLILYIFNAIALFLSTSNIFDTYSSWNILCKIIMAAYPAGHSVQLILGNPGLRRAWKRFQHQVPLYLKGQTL

SMILES	inhibition [1]	inhibition [2]	Activity [3]	Activity [4]	Activity [5]	Activity [6]	Activity [7]	inhibition [8]
C/C1=C\C[C@H](O)/C(C)=C/[C@H]2OC(=O)[C@@H](C)C2CC1 (stereo partly specified)	Active	Active	inactive	inactive	inactive	inactive	inactive	Active
C/C1=C\C[C@H](O)[C@@H](C)C[C@H]2OC(=O)[C@@H](C)C2CC1 (stereo partly specified)	Active	Active	inactive	inactive	inactive	inactive	inactive	100%
